Literature values in patent publication US20050170064A1, “Plant sterol-containing food, and method for preparing the same” (Eugene Science Inc., priority 2002, published 2005).

Tested on: LDL-C level
Conditions: applied form in an oil phase (margarine)

sitostanol fatty acid ester
Reduction of the LDL-C level: ≤ 16%
